Measured values published in patent US20180228815A1, “NARINGENIN AND ASIATIC ACID COMBINATION TREATMENT OF CANCERS” (The Chinese University of Hong Kong, priority 2016, published 2018).

Tested on: bone marrow-derived NK cells
Assay: Flow cytometry of bone marrow-derived NK cell differentiation (NK1.1+ CD122+)
Type: cell-based, mouse
Details: TGF-β1 at 5 ng/ml; 80% without TGF-β1
Experimental: FIGS. 15A-15B. Combination of AA and NG attenuates TGF-β1 induced inhibition on NK cell differentiation. […] (FIG. 15B) Flow cytometry detects that the effect of AA, NG, and their combination on bone marrow-derived NK differentiation in response to TGF-β1 (5 ng/ml). Each error bar represents the mean±SEM for groups of three independent experiments. *** p<0.001 compared to TGF-β1; ### p<0.001 as indicated.
After euthanasia, bone marrow cells were isolated from C57BL/6 mice following the protocol as previously described (10). Bone marrow cells were then seeded at the density of 1×10^6 cells/ml in MEMα medium (Gibco, Thermo Fisher Scientific Inc., MA, USA) containing 10% FBS supplemented with 1 ng/ml IL-7, 10 ng/ml Flt3L, 30 ng/ml SCF, 50 ng/ml IL-15 (Peprotech, NJ, USA) and […] β-Mercaptoethanol (Gibco, Thermo Fisher Scientific Inc., MA, USA) and cultured for 4 days. Then transferred cells to MEMα medium containing 10% FBS supplemented with 50 ng/ml IL-15, 20 ng/ml IL-2 and […] β-Mercaptoethanol to induce NK cells maturation for another 3 days.
Peripheral blood NK cells and cultured NK cells were analyzed using various markers as previously described (10), including rat anti-mouse CD16/CD32 antibody (BD Pharmingen, BD Biosciences, CA, USA), APC-conjugated anti-mouse NK1.1, PE-conjugated anti-mouse NKp46, PE-conjugated anti-mouse CD122 (eBioscience Inc., CA, USA) and Alexa 488-conjugated anti-mouse/human CD11b Antibody (Biolegend, CA, USA). After immunostaining, cells were resuspended with 200 μl staining buffer and analyzed with BD Accuri™ C6 Cytometer (BD Biosciences, CA, USA).

TGF-β1: cytokine added to NK cell cultures to suppress NK cell development [reference compound]
NK1.1+ CD122+ cell (immature NK cells) proportion: 11%
